Broadly, the pIC50 is −log10 of the IC50, conventionally taken in molar units. As usually defined, the Cmax is the highest concentration seen after dosing. The term clearance denotes a measure of how efficiently the substance is removed, as volume per time. As a reminder, the NOAEL is the highest dose or exposure tested at which no adverse effect was seen.

Structures are written as SMILES. pIC50: −log10 of the molar value. Entries after “also recorded” stand apart in the source; their conditions may differ.

For data set [1], the system named is attachment of Jurkat cells to ICAM-1. Kind of data set: T-cell adhesion assay using Jurkat cells. Type of data set: cell-based, human. Conditions: versus positive control. Here is the method: A reported LFA-1 antagonist was used as the positive control.
Jurkat cells were labeled with an 8 μM solution of BCECF-AM (2′,7′-bis-(2-carboxyethyl)-5-(and -6)-carboxyfluorescein) in growth media at room temperature for 15 minutes. […] Non-adherent cells were removed by washing and centrifugation at 100 g for 1 minute. Adherent cells were determined as adherent fluorescent units on a fluorescent plate reader.

Data set [2] addresses T1, LFA-1 (Homo sapiens, UniProt P05107+P20701).
T1 construct: LFA-1 levels in in vitro cell assays (cell attachment and SEB IL-2 release); endogenous in cells; host or cells: human T-cell lines (HuT 78 / Jurkat) and human PBMC
Kind of data set: in vitro cell assays (cell attachment and SEB IL-2 release). It counts as cell-based.

Data set [3] can be described thus: Cardiovascular effects in conscious telemetry-instrumented dogs, IV bolus. Type of data set: in vivo, dogs (beagles). The settings on record: IV bolus injection.
In data set [4] the test system is Chinese hamster ovary (CHO) cells. The data set can be described thus: In vitro chromosomal aberration assay in CHO cells. Conditions: with and without metabolic activation; except single toxic dose 3500 μg/mL without activation. It counts as cell-based. The text has this:
The biological relevance of this response is equivocal due to cytotoxicity.

For data set [5], the system named is micronuclei in polychromatic erythrocytes (PCE). The data set can be described thus: In vivo mouse bone marrow micronucleus assay. More on the design: species or system CD-1 (ICR) BR mice. The settings on record: repeated IV administrations.
Data set [6] in a line: 13-week IV toxicity study with 4-week recovery. Type of data set: in vivo, rats. Conditions: Day 1.
Data set [7] in a line: Single dose ocular and IV ADME with [14C]-compound. It counts as in vivo, dogs. From the text:
No differences in results from male and female dogs were observed.

Data set [8] can be described thus: Plasma PK after single IV bolus dose. Type of data set: in vivo. The settings on record: rat, rats, read-out: clearance rate. The text has this: The systemic clearance rate can be calculated by various means known in the art. For example, the clearance rate for a drug may be calculated from an analysis of the drug concentration time profile for the rate of disappearance of a drug from the plasma following administration of the formulation, for example after a single intravenous injection. One of skill in the art could use a variety of methods to calculate and determine systemic clearance rates. For example, the rate of disappearance may be measured by analysis of the absorption, distribution, metabolism and excretion of a radiolabelled form of a drug or other means of measuring the level of drug in plasma, such as gas chromatography (Sapirstein et al., 1955, Am. Jour. Physiol., Vol. 181, pp. 330; U.S. Pat. No. 4,908,202), liquid chromatography-mass spectrometry methods (LCMS) or HPLC methods. As another example, the clearance rate may be calculated by introducing the formulation to the subject by continuous intravenous infusion until an equilibrium is reached at which the plasma level of the substance (as determined by analysis of plasma samples) is steady, at which point the infusion rate is equal to the rate of clearance from plasma (Earle et al., 1946, Proc. Soc. Exp. Biol. Med., Vol. 62, pp. 262 ff.) […]

Data set [9] in a line: Pilot ocular tolerance of topically administered compound in dogs-PK. Type of data set: in vivo. The settings on record: up to 10% strength at 3 doses/day.
Data set [10] can be described thus: Solubility studies for dermal formulations. It counts as physicochemical.
The nature of data set [11]: 13-week ocular toxicity study with 4-week recovery. The settings on record: 13-week ocular (3%).
The nature of data set [12]: In-vitro percutaneous absorption following topical application.

T1 sequence (P20701 26-1170): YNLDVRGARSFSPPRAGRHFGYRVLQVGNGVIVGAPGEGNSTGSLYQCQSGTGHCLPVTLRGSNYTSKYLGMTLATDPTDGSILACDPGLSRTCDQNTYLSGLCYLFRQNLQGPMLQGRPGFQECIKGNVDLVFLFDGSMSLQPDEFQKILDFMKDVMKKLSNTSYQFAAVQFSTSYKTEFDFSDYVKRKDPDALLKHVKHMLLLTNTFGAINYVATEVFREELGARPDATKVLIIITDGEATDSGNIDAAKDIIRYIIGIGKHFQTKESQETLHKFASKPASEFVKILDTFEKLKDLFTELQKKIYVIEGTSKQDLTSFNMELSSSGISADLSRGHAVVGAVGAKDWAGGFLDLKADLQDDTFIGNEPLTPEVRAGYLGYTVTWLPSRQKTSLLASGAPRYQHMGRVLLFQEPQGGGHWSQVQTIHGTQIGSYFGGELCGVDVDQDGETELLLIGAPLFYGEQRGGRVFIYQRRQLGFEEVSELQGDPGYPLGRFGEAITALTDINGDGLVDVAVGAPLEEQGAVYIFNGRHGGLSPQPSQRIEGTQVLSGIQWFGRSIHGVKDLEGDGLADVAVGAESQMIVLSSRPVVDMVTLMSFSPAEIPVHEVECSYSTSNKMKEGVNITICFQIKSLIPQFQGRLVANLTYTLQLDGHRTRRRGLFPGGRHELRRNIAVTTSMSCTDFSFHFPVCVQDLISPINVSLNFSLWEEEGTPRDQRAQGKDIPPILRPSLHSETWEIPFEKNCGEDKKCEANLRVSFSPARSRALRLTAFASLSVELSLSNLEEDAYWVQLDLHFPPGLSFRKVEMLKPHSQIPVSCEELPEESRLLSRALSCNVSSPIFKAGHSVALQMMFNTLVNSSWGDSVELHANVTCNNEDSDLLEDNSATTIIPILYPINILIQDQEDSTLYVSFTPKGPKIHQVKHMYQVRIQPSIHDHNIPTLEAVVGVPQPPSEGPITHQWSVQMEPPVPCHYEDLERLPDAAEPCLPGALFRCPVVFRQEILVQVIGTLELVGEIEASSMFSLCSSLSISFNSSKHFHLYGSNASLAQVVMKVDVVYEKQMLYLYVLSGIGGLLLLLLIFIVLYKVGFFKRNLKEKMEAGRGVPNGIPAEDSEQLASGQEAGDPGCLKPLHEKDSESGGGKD
T1 sequence (P05107 23-769): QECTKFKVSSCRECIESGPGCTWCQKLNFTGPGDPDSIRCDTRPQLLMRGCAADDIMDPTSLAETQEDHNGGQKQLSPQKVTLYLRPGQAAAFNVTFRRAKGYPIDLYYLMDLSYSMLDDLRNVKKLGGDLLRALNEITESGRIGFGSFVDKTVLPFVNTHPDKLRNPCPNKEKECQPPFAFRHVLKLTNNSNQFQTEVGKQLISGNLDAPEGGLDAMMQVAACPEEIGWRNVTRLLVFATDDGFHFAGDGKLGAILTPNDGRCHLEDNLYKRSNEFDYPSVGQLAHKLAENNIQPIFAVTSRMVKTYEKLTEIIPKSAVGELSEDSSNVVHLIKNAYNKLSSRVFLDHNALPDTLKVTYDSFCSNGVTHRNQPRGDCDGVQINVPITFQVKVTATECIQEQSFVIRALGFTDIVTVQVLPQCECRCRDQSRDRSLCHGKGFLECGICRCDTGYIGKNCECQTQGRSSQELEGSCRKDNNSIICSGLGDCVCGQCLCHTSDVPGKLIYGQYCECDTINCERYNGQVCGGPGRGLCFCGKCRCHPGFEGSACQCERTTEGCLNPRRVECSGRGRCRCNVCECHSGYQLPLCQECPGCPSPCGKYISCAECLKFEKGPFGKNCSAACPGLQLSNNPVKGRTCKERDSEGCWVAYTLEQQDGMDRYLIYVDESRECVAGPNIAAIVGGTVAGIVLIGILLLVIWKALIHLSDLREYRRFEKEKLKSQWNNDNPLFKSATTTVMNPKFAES

Take `CS(=O)(=O)c1cccc(C[C@H](NC(=O)c2c(Cl)cc3c(c2Cl)CCN(C(=O)c2ccc4ccoc4c2)C3)C(=O)O)c1` [Compound of Formula I]: in data set [1], the “dose response curve and IC50, Jurkat cell attachment” value is given as “comparable to that of the known direct competitive LFA-1 antagonist”. For the same molecule, the pIC50 in data set [2] was 8.70. Besides, the “effects on electrocardiography or hemodynamic parameters” value in data set [3] is recorded as “No effects”. For the same molecule, the “induction of structural chromosomal aberrations” value in data set [4] is “negative”. The “bone marrow micronucleus result” value in data set [5] is “no effect; also recorded: negative”. The Cmax stood at 1045.3 ng/mL in data set [6] (daily IV bolus 10 mg/kg) and 5117.3 ng/mL in data set [6] (daily IV bolus 30 mg/kg). In data set [6] (daily IV bolus 30 mg/kg), this molecule showed an AUC0-n of 2345.5 ng·h/mL. Besides, in data set [7] (for 16 hrs, dog), the levels in conjunctiva/cornea result is listed as “greater than 1 micromolar”. For the same molecule, in data set [7] (up to 168 hrs post-dose), the “metabolites in pooled plasma, urine and fecal homogenate” value is recorded as “no metabolites detected”. Further, the clearance in [8] was above 100 mL/min/kg. Moreover, the “ocular safety and tolerability” value in data set [9] is “safe and well tolerated”. Moreover, the figures for the solubility in data set [10] (ethanol/glycol/transcutol solution) and in [10] (water/glycol/transcutol solution) were 10 % (w/w) and 2 % (w/w), respectively. Besides, in data set [11], the NOAEL is recorded as 1.05 mg/eye/3× per day. In data set [12] (determined using [14C]-compound), the “dose penetration into dermis” value is recorded as 2-4%. Besides, in data set [12] (skin transport studies, microtomed human skin, 1% (w/w) prototypes), the “compound level in dermis” value was “greater than 10 micromolar”.
